Assay results reported in patent publication US20210130767A1, “Species of Genus Pholiota and Artificial Cultivation Method and Use Thereof” (Guangdong Institute of Microbiology (Guangdong Detection …, priority 2019, published 2021).

System: Staphylococcus aureus
Assay: Determination of inhibition zone (agar well diffusion, coating / pour plate method)
Format: cell-based
Details: 24 h, 37° C., 1 day, x ± s, n = 3, positive control ampicillin 5 μg/mL, read-out: inhibition zone diameter
Experimental: Bacterial medium: nutrient agar/broth medium;
Nutrition agar/broth medium: beef paste 3 g, peptone 10 g, sodium chloride 5 g, agar 15 g, add water to 1000 ml, and adjust the pH to 7.4 (nutrient broth without agar).
Preparation of ethyl acetate extract: using rice medium (formulated rice and water), the strain of the present invention was incubated and cultured for 45 days, ethyl acetate was added, ultrasonic extraction was performed twice, 40 minutes for each time, and the extract was combined. The solvent was recovered in a rotary evaporator, and steamed to about 1-2 mL of the extract, and transferred to a collection bottle, the ethyl acetate extract is obtained and placed in a vacuum desiccator. After the solvent was completely evaporated, it was transferred to a refrigerator at 4° C. for use, and was filtrated and sterilizd with the bacteria syringe and filter for use.
Positive control preparation: Ampicillin solution, diluted with sterile water to a concentration of 5 μg/mL of the control solution, UV sterilization for 30 min. […]
The counted bacteria solution was diluted to a final concentration of 10^5˜10^6 cfu/mL, and 200 μL of the prepared bacteria suspension was pipetted onto the plate and uniformly coated with a coater. […] The culture was allowed to stand for 1 day, and the size of inhibition zone was measured. […]

## CC1(C)S[C@@H]2[C@H](NC(=O)[C@H](N)c3ccccc3)C(=O)N2[C@H]1C(=O)O [Positive control, Ampicillin]
  zone of inhibition at 5 µg/mL: 19.8 ± 1.7 mm
